From US12195424B2, “Antibiotic compounds” (The General Hospital Corporation, priority 2017, dated 2025)
Read-outs that look alike come from different tables or passages of the source.

How the values were obtained:
[1] = Cytotoxicity (WST-1) in HepG2 cells; assay type: cell-based, human; conditions: human; HepG2 cells, serum-free media, 24 h; read-out: LC50
Text: (§1) Human hepatoma, HepG2 (ATCC HB-8065) cells were maintained in DMEM containing 10% fetal bovine serum and antibiotics penicillin—streptomycin (100 units/ml). Normal human primary renal proximal tubular epithelial cells (RPTEC, Lonza catalog #CC-2553, Walkersville, MD, USA) and adult normal human epidermal keratinocytes (NHEK, Lonza catalog #192627) were maintained in renal cell growth media with growth supplements (REGM, Lonza catalog #CC-3190) and in keratinocyte growth media 2 with growth supplements (KGM-2, Lonza catalog #CC-3107), respectively in a humidified 5% CO2 incubator at 37° C.
(§2) For cytotoxicity tests, HepG2, RPTEC, and NHEK were cultured at 70-80% confluence in tissue culture treated 96-well plates in a volume of 100 μl/well corresponding culture media. To test cytotoxicity in the absence of serum, all cells were washed twice with PBS and then once with the serum-free corresponding culture media. The cells were then treated with a range of concentrations of retinoids in the serum-free culture media for 24 h. For the last 4 h of the 24 h period, 50 μl and 10 μl of WST-1 (Roche, Mannheim, Germany) were added in each well of the 24-well and the 96-well plates, respectively. WST-1 reduction was measured at 450 nm. The percent fluorescence relative to that of the no-treatment control was calculated. The assay was done in triplicate.

[2] = system: human hepatoma HepG2 cells; experiment: Cytotoxicity (WST-1) in HepG2 cells; assay type: cell-based; conditions: compared with CD437, in words
Text: as §1, §2

human erythrocytes = experiment: Human blood hemolysis; assay type: cell-based
Experimental: Human blood hemolysis. Hemolytic activity of retinoids on human erythrocytes was evaluated using a previously described method with modifications. 10% human erythrocytes were purchased from Rockland Immunochemicals (Limerick, PA, USA). The erythrocytes were diluted to 4% with PBS, and 100 μl was added to 100 μl of two-fold serial dilutions of compounds in PBS, 0.2% DMSO (negative control), or 2% Triton-X 100 (positive control) in a 96-well plate. The plate was incubated at 37° C. for 1 h and then centrifuged at 500×g for 5 min. 100 μl of the supernatant was transferred to a fresh 96-well plate and absorbance of supernatants was measured at 540 nm. Percent hemolysis was calculated using the following equation: (A540 nm of compound treated sample−A540 nm of 0.1% DMSO treated sample)/(A540 nm of 1% Triton X-100 treated sample−A540 nm of 0.1% DMSO treated sample)×100. HC50 (concentration of compound causing 50% hemolysis) was determined using SigmaPlot 10.0 (Systat Software Inc., San Jose, CA, USA).

[3] = system: Cutibacterium (Propionibacterium) acnes; experiment: Morphology of treated P. acnes bacteria; assay type: cell-based; conditions: in words (FIG. 13)
[4] = system: Cutibacterium (Propionibacterium) acnes; experiment: Growth inhibition / MIC against P. acnes; assay type: cell-based; conditions: in words (FIG. 11)
Experimental: Minimal inhibitory concentration (MIC) assay. The MICs of antibiotics were determined by the standard micro-dilution method recommended by the Clinical and Laboratory Standards Institute. The assay was conducted in triplicate.
More specifically, uptake of SYTOX Green by Cutibacterium (Propionibacterium) acnes cells treated with retinoids CD437 and Analog 2 increased, indicating higher permeability (FIG. 12; individual data points (n=3 biologically independent samples) and means are shown).

MRSA MW2 persisters = experiment: Persister killing assay; assay type: cell-based, S. aureus; conditions: MRSA persisters, in words
Experimental: Persister killing assay. […] Persistency of stationary-phase S. aureus VRS1 was evaluated by treating with 100×MIC daptomycin and 100×MIC linezolid, because the strain is resistant to vancomycin, gentamicin, ciprofloxacin, and rifampicin. We prepared persister cells of the 13 S. aureus strains by growing cultures overnight to stationary phase at 37° C. at 225 rpm. The overnight cultures were washed three times with PBS and diluted to ˜5×10^7 ? CFU/ml with the same buffer. 2 ml of the persister suspension containing appropriate concentrations of antibiotics was added to the wells of a 96-well assay block (Corning Costar 3960) and incubated at 37° C., with shaking at 225 rpm. At specific times, 400 μl samples were removed and washed once with PBS to remove the antibiotic. The samples were serially diluted 10^5 fold with PBS and spot-plated onto TSA plates. After incubating the plates overnight (˜18 h) at 37° C., the colonies were counted to enumerate the number of cells. These experiments were conducted in triplicate.

Pharmacokinetic analysis = assay type: in vivo, mice; conditions: for half-life: 20 mg/kg
Experimental: Pharmacokinetic analysis. Pharmacokinetic experiments were conducted by SAI Life Sciences Ltd. (Pune, India) in accordance with guidelines provided by the Committee for the Purpose of Control and Supervision of Experiments on Animals (CPCSEA). The Institutional Animal Ethics Committee (IAEC) approved the experimental protocol. In brief, healthy female CD1 mice (6 weeks old) weighing between 20 to 25 g were procured from Hylasco (Hyderabad, India). Analog 2 was dissolved in a 1:1 solution of Kolliphor EL (Sigma-Aldrich, St Louis, MO, USA) and ethanol and then diluted 1:10 in saline to a final concentration of 2 mg/ml. Groups of mice (n=3) were treated with 20 mg/kg Analog 2 (i.p.). Blood samples were collected as terminal a bleed under light isoflurane anesthesia through a cardiac puncture such that samples were obtained at pre-dose, 0.08, 0.25, 0.5, 1, 2, 4, 8 & 24 h. Immediately after collection, plasma was harvested by centrifugation and stored at −70° C. until analysis. All samples were processed for analysis by protein precipitation using acetonitrile and analyzed with fit-for-purpose LC/MS/MS method (LLOQ=4.90 ng/mL for plasma). Pharmacokinetic parameters were calculated using the non-compartmental analysis tool of Phoenix WinNonlin (Version 6.3). No statistical methods were used to predetermine samples size. The experiments were not randomized, and investigators were not blinded to allocation during experiments and outcome assessment. Outliers were determined based on Grubb's test using GraphPad Prism 7 (GraphPad Software, La Jolla, CA, USA).

For `OCc1ccc2cc(-c3ccc(O)c(C45CC6CC(CC(C6)C4)C5)c3)ccc2c1` [Analog 2, 2-(adamantan-1-yl)-4-(6-(hydroxymethyl)naphthalen-2-yl)phenol], the CC50 at 24 h [1] was > 32 µg/mL, the anticancer activity [2] was “significantly reduced” and the hemolytic activity (human erythrocytes; compared with CD437, in words) was “significantly reduced”. The HC50 (human erythrocytes; human erythrocytes, 1 h) was > 32 µg/mL, the morphology of bacteria [3] was “altered and elongated” and the growth inhibition [4] was “inhibit the growth”. The anti-persister activity (MRSA MW2 persisters) was “retained bacterial activity against MRSA persisters”, the AUC(0-inf) (Pharmacokinetic analysis; female, CD1, mouse, ip, mice, single injection 20 mg/kg i.p., plasma, read-out: AUCinf (area under the curve to infinite)) was 16500 ng·h/mL and the AUC(0-t) (Pharmacokinetic analysis; female, CD1, mouse, ip, mice, single injection 20 mg/kg i.p., plasma, read-out: AUClast (area under the curve to last time point)) was 16400 ng·h/mL. It also gave a Cmax (Pharmacokinetic analysis; female, CD1, mouse, ip, mice, single injection 20 mg/kg i.p., plasma, read-out: Cmax (maximum concentration observed)) of 16100 ng/mL, a Tmax (Pharmacokinetic analysis; female, CD1, mouse, ip, mice, single injection 20 mg/kg i.p., plasma, read-out: Tmax (the time taken to reach the maximum concentration)) of 0.5 h and a half-life (Pharmacokinetic analysis; female, CD1, mouse, plasma, ip, intraperitoneal single dose of 20 mg/kg, as stated in Example 3, read-out: elimination half-life (converted)) of 4.5 h. The half-life (Pharmacokinetic analysis; female, CD1, mouse, plasma, ip, mice, single injection 20 mg/kg i.p., plasma, read-out: T1/2 (Half-life) (converted)) was 4.49 h, the maximum plasma concentration (Pharmacokinetic analysis; intraperitoneal single dose of 20 mg/kg, as stated in Example 3) was ~10 µg/mL and the “CL (clearance)” value (Pharmacokinetic analysis; mice, single injection 20 mg/kg i.p., plasma) was 20.16 mL/min/kg.
